Assay results taken from paper PMC11725581, “Developing novel Lin28 inhibitors by computer aided drug design” (Cell Death Discovery, 2025).
“Also recorded” adds a separate entry of the source.

How the values were obtained:
Format in all cases: cell-based
[1] = tested on: DuNE cells; test: Drug-drug interaction (SynergyFinder) in DuNE cells; details: score higher than 10 = synergistic
Description: Fig. 6 Ln268 enhances stress inducers to inhibit cancer cell growth. A, B DuNE cells were transfected with GFP-tagged Lin28b together with either RFP-tagged G3BP1, YB-1, or DCP1. Cells were then challenged with ARS (A), cisplatin (CP) or etoposide (etop) (B) to induce a stress condition. Confocal microscope detected the subcellular localization of Lin28b. C, D Du145, DuNE and DuNE(KO) cells were treated with ARS (C), cisplatin (CP) or etoposide (etop) (D). Percentage of cells forming SGs was counted in five random fields from two replicate experiments. E DuNE and DuNE(KO) cells were treated with ARS, cisplatin or etoposide. Cell viability was measured by Incucyte. F DuNE cells were transfected with GFP-tagged Lin28b and treated with ARS together with C1632, Ln15, Ln268, or RNase. Confocal microscope detected SGs formation mediated by Lin28b. Fluorescence images were captured, and SGs sizes and numbers were calculated as shown. […] Drug interactions were calculated by SynergyFinder, with a synergy score higher than 10 representing synergistic relationship. […]
We subsequently investigated whether Ln268 could potentiate anticancer effects of stress inducers to block cancer cell growth in vitro. First, we determined the IC50 values of each inhibitor, which were then used to formulate drug-drug interactions of Ln268 with cisplatin, etoposide, or ARS (Figure S5). […]

[2] = tested on: DuNE(KO) cells (Lin28b gene knocked out by CRISPR); test: Cell proliferation, DuNE(KO) cells; details: Lin28b knockout, 72 h
From the text: (§1) To further evaluate whether the suppressive effects of Ln268 are specific to Lin28-positive cancer cells, we compared cell growth rates of DuNE (Lin28b-positive line) and Du145 (Lin28b-negative line), both of which are Lin28a-negative. DuNE has the same genomic background with Du145 except for the transduction of the SRRM4 gene. […] Furthermore, Ln268 had no impact on the cell growth of DuNE(KO) cells, in which the Lin28b gene was knocked out by CRISPR (Fig. 5C). […] We also tested several ovarian and endometrial cancer cell lines with different Lin28a and Lin28b expression profiles (Fig. 5E).

[3] = tested on: DuNE spheroids; test: DuNE 3D spheroid growth (Incucyte)
From the text: (§2) CSCs have characteristic tumorigenic, self-renewal, and differentiation properties. The self-renewal ability is hijacked by CSCs that makes them both tumorigenic and capable of sustaining long-term tumor growth, which can be evaluated by 3D spheroid and colony formation assays. We established a DuNE spheroid model in which DuNE cells formed 3D spheroids in 96-well plates (Figure S3). By integrating this 3D culture with the Incucyte live-cell imaging system, we quantified the sizes of the spheroid growth over 0–6 days to generate a spheroid growth curve. Using this model system, we treated the DuNE spheroids with increasing doses (0–100 μM) of C1632, Ln15, and Ln268 for 0–6 days. […] In addition, classic colony formation assays were used to measure the stemness in the DuNE model. Colony formation counts, which were ~50 under vehicle treatment after 14 days, decreased by 22% in C1632-treated plates, and by 75% and 96% in the Ln15 and Ln268 treated plates, respectively (Fig. 4D).
For a spheroid generation, 1000 cells/well were seeded in 96-well ULA round-bottomed plates (Corning, Amsterdam) using a multichannel pipette. 3D multicellular spheroids were spontaneously generated after 24 h culture. Plates were incubated for 6 days at 37 °C, 5% CO2, and 95% humidity. DuNE and Du145 cells were cultured in DMEM with 10% FBS. Fully automated image analysis of tumor spheroids was carried out with the Incucyte® S3 Live-Cell Analysis System. The size and shape of multicellular spheroids were analyzed by using the Incucyte® Spheroid Analysis Software Module.

[4] = tested on: VOA1066 cells; test: Cell proliferation (Incucyte), VOA1066
From the text: as §1

[5] = tested on: DuNE cells; test: Colony formation assay, DuNE cells; details: 14 days, vs vehicle (~50 colonies)
From the text: as §2
In the colony formation assays, cancer cells were seeded in 0.7% soft agar in a 6-well plate, with a 1% soft agar bottom base coating. Cells were allowed to grow for 14 days to form colonies. Colonies were stained with crystal violet and imaged by stitching 5X field images together to capture the entire well (Zeiss light microscope [Carl Zeiss]). Colony numbers were counted according to their diameters (100-300um or >300um). Three independent biological replicates were performed for all the assays.

[6] = tested on: HEC1B cells; test: Cell proliferation (Incucyte), HEC1B; details: Lin28a/Lin28b-negative
From the text: as §1

Question: With `O=c1[nH]c(Nc2ccc(F)cc2O)cs1` [Ln268] as the compound, how does the “synergy score, Ln268 + cisplatin” value [1] read?
Answer: 19.39

Question: And the “synergy score, Ln268 + etoposide” value [1]?
Answer: 12.77

Question: And the “effect on cell growth of DuNE(KO) cells” value [2]?
Answer: no impact

Question: What about the “effect on DuNE spheroid growth” value [3] of the same compound?
Answer: strongest potency among all 13 candidate compounds; also recorded: efficiently blocked DuNE spheroid growth in a time-dependent manner

Question: And the “potency improvement over parent compound Ln15 (spheroid growth)” value [3]?
Answer: ~ 2 fold

Question: What about the “potency relative to C1632 (spheroid growth)” value [3] of the same compound?
Answer: approximately 10 fold

Question: And the IC50 ([3]; 0-100 μM, 0-6 days, read-out: concentration to achieve 50% spheroid growth inhibition)?
Answer: 10 µM

Question: And the “effect on growth of VOA1066 cells” value ([4]; Lin28a/Lin28b-positive)?
Answer: suppressed the growth

Question: What about the IC50 ([4]; cells express both Lin28a and Lin28b at relatively high levels) of the same compound?
Answer: 0.4 µM

Question: And the “decrease of colony formation counts” value [5]?
Answer: 96%

Question: And the “effect on growth of HEC1B cells” value [6]?
Answer: no or minimal impacts
